Like-named read-outs stand apart in the source and are kept apart here.
Tests used:
Mouse/CD-1 = test: exploratory single dose and 14-day repeat-dose toxicity study in mice; type: in vivo
Method: A single oral dose study with a 14-day repeat-dose phase was conducted in male and female mice. 250 mg/kg was selected as the highest dose for the repeat dose portion of the study.

[1] = plasma exposure in HLA-B27/Huβ2m rats; details: HLA B27 Tg rat, 20 mg/kg
Excerpt: In each disease model, steady-state pharmacokinetics were characterized.

Monkey/Cynomolgus = test: single dose (fasted/non-fasted) and 14-day repeat-dose study in cynomolgus monkeys; type: in vivo
Method: (§1) In cynomolgus monkeys, a 7-day repeat dose toxicity study was conducted with doses up to 250 mg/kg/day. […] To aid in dose selection for a subsequent pivotal study, an additional study was conducted to determine the maximum feasible dose under optimal feeding conditions in cynomolgus monkeys. […] Dosing monkeys in the fasted state prior to dosing yielded more consistently higher exposures. Therefore, a dose of 375 mg/kg in 0.5% methyl cellulose (400 cps) and 0.1% Tween 80 administered to fasted monkeys was selected for the 14-day repeat-dose phase of the study, and was considered the maximum feasible dose.

CYP3A4/5 = test: in vitro assessment of CYP inhibition; type: in vitro ADME, human; details: in vitro assessments
Method: (§2) In vitro and in vivo studies were conducted to characterize the absorption, PK, distribution, and metabolism of Compound 1. […] Additionally, plasma samples from single dose PK studies in mice and monkeys were evaluated for circulating metabolites.

[2] = exposure in 91-day mouse toxicology study; details: for AUC: mouse, plasma
[3] = toxicokinetics, single dose and 14-day monkey study; type: in vivo; details: cynomolgus monkey, plasma, po, monkeys
Method: as §1

[4] = Phase 1 first in human study, pharmacokinetics; type: in vivo
[5] = pivotal 28-day repeat-dose toxicity study in monkeys; type: in vivo, cynomolgus monkey; details: both sexes, cynomolgus monkey, in vivo; monkeys, 28 days, highest dose used; read-out: NOAEL with respect to dose
[6] = system: cynomolgus monkeys (Macaca fascicularis); test: as above; type: in vivo, cynomolgus monkey
[7] = single intravenous dose pharmacokinetics in cynomolgus monkeys; type: in vivo; details: cynomolgus monkey, plasma; for Vd: read-out: Vdss;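 on AUCLST: AUC to the last measurable time point (AUClast)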
Method: as §2

[8] = single oral dose pharmacokinetics in CD-1 mice; type: in vivo, mouse
Method: as §2

[9] = 91-day repeat-dose toxicology study with mice; type: in vivo, mouse; details: mouse, in vivo, 91-day
[10] = toxicokinetics, 28-day mouse study; type: in vivo; details: mice; for AUC / Cmax: Crl:CD1 (ICR), mouse, plasma, po;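 on AUCLST: AUC to the last measurable time point (AUClast)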
Excerpt: There were no notable sex-related differences in Compound 1 exposure.
Additionally, toxicokinetic animals received the vehicle or compound in the same manner and dose levels as the main study groups.

[11] = single intravenous dose pharmacokinetics in CD-1 mice; type: in vivo, mouse; details: for Vd: read-out: Vdss
Method: as §2

[12] = cynomolgus monkey, in vivo, 150 mg/kg/day
[13] = cynomolgus, monkey, female, single IV 5 mg/kg
[14] = cynomolgus, monkey, male, single IV 5 mg/kg
[15] = CD-1, plasma, mouse, female, single oral 15 mg/kg
[16] = CD-1, plasma, mouse, female, single oral 100 mg/kg
[17] = CD-1, plasma, mouse, male, single oral 15 mg/kg
[18] = CD-1, plasma, mouse, male, single oral 100 mg/kg
[19] = female, 15 mg/kg/day, Study Day 1, female, 15 mg/kg/day
[20] = female, 15 mg/kg/day, Study Day 21, female, 15 mg/kg/day
[21] = female, 100 mg/kg/day, Study Day 1, female, 100 mg/kg/day
[22] = female, 100 mg/kg/day, Study Day 21, female, 100 mg/kg/day
[23] = female, 750 mg/kg/day, Study Day 1, female, 750 mg/kg/day
[24] = female, 750 mg/kg/day, Study Day 21, female, 750 mg/kg/day
[25] = male, 15 mg/kg/day, Study Day 1, male, 15 mg/kg/day
[26] = male, 15 mg/kg/day, Study Day 21, male, 15 mg/kg/day
[27] = male, 100 mg/kg/day, Study Day 1, male, 100 mg/kg/day
[28] = male, 100 mg/kg/day, Study Day 21, male, 100 mg/kg/day
[29] = male, 750 mg/kg/day, Study Day 1, male, 750 mg/kg/day
[30] = male, 750 mg/kg/day, Study Day 21, male, 750 mg/kg/day
[31] = CD-1, plasma, mouse, female, single IV 5 mg/kg
[32] = CD-1, plasma, mouse, male, single IV 5 mg/kg

SMILES: CCOCc1cnc(Cl)nc1Oc1ccc2c(ccc3sc4c(c32)NC[C@@H](C)NC4=O)n1 [Compound 1]
- Findings, 14-day phase (Mouse/CD-1; mice, 15, 75, 250 mg/kg/day): no compound related findings were identified
- Findings, single dose phase (Mouse/CD-1; mice, at 750 mg/kg): Cold to touch and shaking
- AUC [1]: 2820 ng·h/mL
- Findings, single dose phase (Monkey/Cynomolgus; 375 and 500 mg/kg, fasted and non-fasted): No compound-related findings
- Findings, 14-day phase (Monkey/Cynomolgus; fasted, 375 mg/kg/day): No compound-related findings
- inhibition of intestinal CYP3A4/5 (CYP3A4/5): potential for direct and time-dependent inhibition
- margin of human 150 mg exposure below the mouse NOAEL ([2]; mouse NOAEL AUCLST vs human 150 mg AUCLST): 21 fold
- AUC ([2]; 100 mg/kg/day): 28800 ng·h/mL
- AUC ([2]; 750 mg/kg/day): 144000 ng·h/mL
- AUC(0-t) ([3]; 375 mg/kg, 375 mg/kg, fasted, read-out: Mean Day 1 AUC0-t): 11500 ng·h/mL
- AUC(0-t) ([3]; 375 mg/kg, 375 mg/kg, non-fasted, read-out: Mean Day 1 AUC0-t): 4060 ng·h/mL
- AUC(0-t) ([3]; 375 mg/kg/day, fasted, 375 mg/kg/day, read-out: Mean Day 14 AUC0-t): 5510 ng·h/mL
- AUC(0-t) ([3]; 500 mg/kg, 500 mg/kg, fasted, read-out: Mean Day 1 AUC0-t): 14300 ng·h/mL
- AUC(0-t) ([3]; 500 mg/kg, 500 mg/kg, non-fasted, read-out: Mean Day 1 AUC0-t): 11400 ng·h/mL
- dose proportionality of Cmax and AUC ([4]; Day 14, multiple daily doses 10 mg to 150 mg): approximately dose-proportional manner
- effect of food on PK ([4]; current capsule formulation, fed vs fasted): limited effect
- accumulation ([4]; daily dosing for 14 days): limited to no observed accumulation
- AUC ([4]; human, in vivo, oral, humans, 150 mg, read-out: observed AUCLST): 1360 ng·h/mL
- half-life at 14 days ([4]; human, plasma, oral, Day 14, multiple daily doses 10 mg to 150 mg, read-out: t½, geometric mean): 1.96 to 4.39 h
- Tmax at 14 days ([4]; human, plasma, oral, multiple daily doses, 10 mg to 150 mg): 1 to 2.5 h
- Tmax ([4]; human, plasma, single oral dose, 3 mg to 400 mg, read-out: median Tmax): 1 to 3 h
- half-life ([4]; human, plasma, single oral dose, 3 mg to 400 mg, read-out: terminal elimination half-life (t½), geometric mean): 1.66 to 6.95 h
- predicted human bioavailability ([4]; prediction before food effect part): 25%
- dose proportionality of Cmax and AUC ([4]; single oral dose, 3 mg to 400 mg): approximately dose proportional manner
- NOAEL at 28 days [5]: 375 mg/kg/day
- clinical observation, stool (non-adverse) ([6]; cynomolgus monkey, in vivo, 50 mg/kg/day): discolored and/or watery stool
- clinical observation, urine (non-adverse) [6, 12]: dose-dependent incidents of discolored urine
- microscopic finding, skeletal muscle (non-adverse) [6, 12]: Minimal myofiber degeneration in skeletal muscle
- mortality, body weight, ophthalmic examinations, electrocardiograms, clinical pathology, macroscopic observations, organ weights ([6]; monkeys, 50, 150, 375 mg/kg/day, 28 days): no compound-related effects
- half-life ([7]; both sexes, iv, 5 mg/kg, monkeys, read-out: terminal half-life): ≤ 1 h
- AUC [7, 13]: 2200 ng·h/mL
- AUC(0-inf) [7, 13]: 2210 ng·h/mL
- clearance [7, 13]: 38.3 mL/min/kg
- Vd [7, 13]: 1.93 L/kg
- half-life ([7]; cynomolgus, monkey, female, single IV 5 mg/kg, read-out: t1/2,z (converted)): 0.98 h
- AUC [7, 14]: 1920 ng·h/mL
- AUC(0-inf) [7, 14]: 1920 ng·h/mL
- clearance [7, 14]: 43.5 mL/min/kg
- Vd [7, 14]: 1.81 L/kg
- half-life ([7]; cynomolgus, monkey, male, single IV 5 mg/kg, read-out: t1/2,z (converted)): 0.95 h
- AUC [8, 15]: 5170 ng·h/mL
- AUC(0-inf) [8, 15]: 5250 ng·h/mL
- Cmax [8, 15]: 1980 ng/mL
- Tmax ([8]; CD-1, plasma, mouse, female, single oral 15 mg/kg, read-out: tmax): 0.5 h
- AUC [8, 16]: 28200 ng·h/mL
- AUC(0-inf) [8, 16]: 28400 ng·h/mL
- Cmax [8, 16]: 8080 ng/mL
- Tmax ([8]; CD-1, plasma, mouse, female, single oral 100 mg/kg, read-out: tmax): 0.25 h
- AUC [8, 17]: 2870 ng·h/mL
- AUC(0-inf) [8, 17]: 3040 ng·h/mL
- Cmax [8, 17]: 1270 ng/mL
- Tmax ([8]; CD-1, plasma, mouse, male, single oral 15 mg/kg, read-out: tmax): 0.25 h
- AUC [8, 18]: 19200 ng·h/mL
- AUC(0-inf) [8, 18]: 19200 ng·h/mL
- Cmax [8, 18]: 6600 ng/mL
- Tmax ([8]; CD-1, plasma, mouse, male, single oral 100 mg/kg, read-out: tmax): 0.5 h
- bioavailability ([8]; both sexes, CD-1, mouse, plasma, po, mice, doses in the range 15 to 375 mg/kg): 22 to 51%
- Tmax ([8]; both sexes, CD-1, mouse, plasma, mice, oral dosing, read-out: time to maximum plasma concentration (tmax)): 0.25 to 1 h
- F ([8]; mouse, female, single oral 15 mg/kg): 51%
- F ([8]; mouse, female, single oral 100 mg/kg): 41%
- F ([8]; mouse, male, single oral 15 mg/kg): 23%
- F ([8]; mouse, male, single oral 100 mg/kg): 22%
- NOAEL at 91 days [9]: 100 mg/kg/day
- AUC [10, 19]: 5360 ng·h/mL
- Cmax [10, 19]: 2980 ng/mL
- AUC [10, 20]: 5980 ng·h/mL
- Cmax [10, 20]: 2970 ng/mL
- AUC [10, 21]: 40100 ng·h/mL
- Cmax [10, 21]: 14500 ng/mL
- AUC [10, 22]: 32800 ng·h/mL
- Cmax [10, 22]: 12300 ng/mL
- AUC [10, 23]: 198000 ng·h/mL
- Cmax [10, 23]: 50300 ng/mL
- AUC [10, 24]: 135000 ng·h/mL
- Cmax [10, 24]: 23200 ng/mL
- AUC [10, 25]: 4410 ng·h/mL
- Cmax [10, 25]: 2930 ng/mL
- AUC [10, 26]: 4460 ng·h/mL
- Cmax [10, 26]: 2420 ng/mL
- AUC [10, 27]: 29200 ng·h/mL
- Cmax [10, 27]: 13900 ng/mL
- AUC [10, 28]: 24900 ng·h/mL
- Cmax [10, 28]: 11700 ng/mL
- AUC [10, 29]: 211000 ng·h/mL
- Cmax [10, 29]: 29800 ng/mL
- AUC [10, 30]: 92800 ng·h/mL
- Cmax [10, 30]: 19400 ng/mL
- dose proportionality of systemic exposure (AUCLST) ([10]; Day 1, 15 to 750 mg/kg/day): approximately dose-proportional manner
- dose proportionality of systemic exposure (AUCLST) ([10]; Day 21, 15 to 750 mg/kg/day): less than dose-proportional manner
- AUC [11, 31]: 3400 ng·h/mL
- AUC(0-inf) [11, 31]: 3430 ng·h/mL
- clearance [11, 31]: 24.3 mL/min/kg
- Vd [11, 31]: 2.49 L/kg
- half-life ([11]; CD-1, plasma, mouse, female, single IV 5 mg/kg, read-out: t1/2,z (converted)): 6.6 h
- AUC [11, 32]: 4160 ng·h/mL
- AUC(0-inf) [11, 32]: 4350 ng·h/mL
- clearance [11, 32]: 19.2 mL/min/kg
- Vd [11, 32]: 5.08 L/kg
- half-life ([11]; CD-1, plasma, mouse, male, single IV 5 mg/kg, read-out: t1/2,z (converted)): 7.3 h
- half-life ([11]; both sexes, CD-1, mouse, plasma, iv, 5 mg/kg, mice, read-out: terminal half-life (converted)): ~7 h
- systemic clearance as % of liver blood flow ([11]; mice, IV): approximately 25 % of liver blood flow

Source: patent US20220251105A1, “METHODS OF TREATING A MK2-MEDIATED DISORDER” (Celgene CAR LLC, priority 2019, published 2022)
